Laboratory results taken from patent US20050112573A1, “Method of detecting toxic substance” (priority 2001, published 2005).

Tested on: yeast genes (level of expressed mRNA)
Test: DNA chip analysis of expressed mRNA of yeast genes after 2 h culture with a toxic chemical substance
Assay type: cell-based, Saccharomyces cerevisiae S288C
Details: for The level of expressed mRNA in the presence of chemical substance/ (ratio to absence of chemical substance): stress protein genes, DNA chip
Procedure, shortened: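 S. cerevisiae S288C in YPD at 25 °C was exposed at log phase for 2 h to a growth-inhibiting, non-lethal concentration of the chemical. Poly(A) mRNA was reverse-transcribed with Cy3- or Cy5-dUTP and hybridized to a whole-genome yeast DNA chip (65 °C, >12 h). Values are fluorescence ratios versus untreated cells.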

S=C([S-])NCCNC(=S)[S-].[Zn+2] [(11), zinc N,N′-ethylenebis(dithiocarbamate)]
The level of expressed mRNA in the presence of chemical substance/The level of expressed mRNA in the absence of chemical substance (yeast gene YIL123W): 1.2
The level of expressed mRNA in the presence of chemical substance/The level of expressed mRNA in the absence of chemical substance (yeast gene YIL140W): 0.9
The level of expressed mRNA in the presence of chemical substance/ (in its absence), gene YJL070C (yeast gene YJL070C, ratio of DNA chip fluorescence intensity to that without chemical substance): 1.3
The level of expressed mRNA in the presence of chemical substance/The level of expressed mRNA in the absence of chemical substance (yeast gene YJL073W): 0.5
The level of expressed mRNA in the presence of chemical substance/The level of expressed mRNA in the absence of chemical substance (yeast gene YJL089W): 0.6
The level of expressed mRNA in the presence of chemical substance/ (ratio to absence), gene YJL096W (yeast gene YJL096W, mitochondria-located protein genes, 2 h culture with chemical): 1.2
The level of expressed mRNA in the presence of chemical substance/The level of expressed mRNA in the absence of chemical substance (yeast gene YJL116C): 2.9
The level of expressed mRNA in the presence of chemical substance/ (ratio to absence of chemical substance) (yeast gene YJL158C): 1.9
The level of expressed mRNA in the presence of chemical substance/ (in its absence), gene YJL167W (yeast gene YJL167W, ratio of DNA chip fluorescence intensity to that without chemical substance): 1.2
The level of expressed mRNA in the presence of chemical substance/ (ratio to absence), gene YJL180C (yeast gene YJL180C, mitochondria-located protein genes, 2 h culture with chemical): 1.4
The level of expressed mRNA in the presence of chemical substance/ (in its absence), gene YJL216C (yeast gene YJL216C, ratio of DNA chip fluorescence intensity to that without chemical substance): 1.1
The level of expressed mRNA in the presence of chemical substance/The level of expressed mRNA in the absence of chemical substance (yeast gene YJR004C): 0.7
The level of expressed mRNA in the presence of chemical substance/The level of expressed mRNA in the absence of chemical substance (yeast gene YJR086W): 1.0
The level of expressed mRNA in the presence of chemical substance/ (ratio to absence of chemical substance) (yeast gene YJR090C): 0.4
The level of expressed mRNA in the presence of chemical substance/The level of expressed mRNA in the absence of chemical substance (yeast gene YKL008C): 1.5
The level of expressed mRNA in the presence of chemical substance/The level of expressed mRNA in the absence of chemical substance (yeast gene YKL013C): 1.1
The level of expressed mRNA in the presence of chemical substance/The level of expressed mRNA in the absence of chemical substance (yeast gene YKL039W): 1.0
The level of expressed mRNA in the presence of chemical substance/The level of expressed mRNA in the absence of chemical substance (yeast gene YKL041W): 1.2
The level of expressed mRNA in the presence of chemical substance/The level of expressed mRNA in the absence of chemical substance (yeast gene YKL096W): 3.5
The level of expressed mRNA in the presence of chemical substance/The level of expressed mRNA in the absence of chemical substance (yeast gene YKL139W): 1.4
The level of expressed mRNA in the presence of chemical substance/ (ratio to absence of chemical substance) (yeast gene YKL164C): 1.0
The level of expressed mRNA in the presence of chemical substance/The level of expressed mRNA in the absence of chemical substance (yeast gene YKL165C): 0.3
The level of expressed mRNA in the presence of chemical substance/The level of expressed mRNA in the absence of chemical substance (yeast gene YKL193C): 1.7
The level of expressed mRNA in the presence of chemical substance/ (in its absence), gene YKR009C (yeast gene YKR009C, ratio of DNA chip fluorescence intensity to that without chemical substance): 1.2
The level of expressed mRNA in the presence of chemical substance/ (in its absence), gene YKR034W (yeast gene YKR034W, ratio of DNA chip fluorescence intensity to that without chemical substance): 0.0
The level of expressed mRNA in the presence of chemical substance/ (ratio to absence of chemical substance) (yeast gene YKR053C): 0.5
The level of expressed mRNA in the presence of chemical substance/ in its absence, gene YKR058W (yeast gene YKR058W, energy system protein genes, 2 h culture with the chemical, ratio to control without chemical): 1.5
The level of expressed mRNA in the presence of chemical substance/ (in its absence), gene YLR006C (yeast gene YLR006C, ratio of DNA chip fluorescence intensity to that without chemical substance): 1.5
The level of expressed mRNA in the presence of chemical substance/ (ratio to absence of chemical substance) (yeast gene YLR006C): 1.5
The level of expressed mRNA in the presence of chemical substance/The level of expressed mRNA in the absence of chemical substance (yeast gene YLR120C): 1.2
The level of expressed mRNA in the presence of chemical substance/The level of expressed mRNA in the absence of chemical substance (yeast gene YLR136C): 1.2
The level of expressed mRNA in the presence of chemical substance/The level of expressed mRNA in the absence of chemical substance (yeast gene YLR178C): 3.7
The level of expressed mRNA in the presence of chemical substance/The level of expressed mRNA in the absence of chemical substance (yeast gene YLR250W): 1.4
The level of expressed mRNA in the presence of chemical substance/ in its absence, gene YLR295C (yeast gene YLR295C, energy system protein genes, 2 h culture with the chemical, ratio to control without chemical): 1.3
The level of expressed mRNA in the presence of chemical substance/ (ratio to absence), gene YLR295C (yeast gene YLR295C, mitochondria-located protein genes, 2 h culture with chemical): 1.3
The level of expressed mRNA in the presence of chemical substance/The level of expressed mRNA in the absence of chemical substance (yeast gene YLR327C): 5.0
The level of expressed mRNA in the presence of chemical substance/ (in its absence), gene YLR351C (yeast gene YLR351C, ratio of DNA chip fluorescence intensity to that without chemical substance): 1.1
The level of expressed mRNA in the presence of chemical substance/The level of expressed mRNA in the absence of chemical substance (yeast gene YLR356W): 3.1
The level of expressed mRNA in the presence of chemical substance/The level of expressed mRNA in the absence of chemical substance (yeast gene YLR362W): 1.5
The level of expressed mRNA in the presence of chemical substance/ (in its absence), gene YLR375W (yeast gene YLR375W, ratio of DNA chip fluorescence intensity to that without chemical substance): 1.6
The level of expressed mRNA in the presence of chemical substance/The level of expressed mRNA in the absence of chemical substance (yeast gene YLR391W): 1.4
The level of expressed mRNA in the presence of chemical substance/The level of expressed mRNA in the absence of chemical substance (yeast gene YLR429W): 0.9
The level of expressed mRNA in the presence of chemical substance/ in its absence, gene YML129C (yeast gene YML129C, energy system protein genes, 2 h culture with the chemical, ratio to control without chemical): 1.2
The level of expressed mRNA in the presence of chemical substance/ (ratio to absence), gene YML129C (yeast gene YML129C, mitochondria-located protein genes, 2 h culture with chemical): 1.2
The level of expressed mRNA in the presence of chemical substance/The level of expressed mRNA in the absence of chemical substance (yeast gene YMR004W): 2.5
The level of expressed mRNA in the presence of chemical substance/ (ratio to absence), gene YMR023C (yeast gene YMR023C, mitochondria-located protein genes, 2 h culture with chemical): 0.8
The level of expressed mRNA in the presence of chemical substance/The level of expressed mRNA in the absence of chemical substance (yeast gene YMR094W): 1.0
The level of expressed mRNA in the presence of chemical substance/The level of expressed mRNA in the absence of chemical substance (yeast gene YMR104C): 1.1
The level of expressed mRNA in the presence of chemical substance/ (ratio to absence of chemical substance) (yeast gene YMR186W): 1.1
The level of expressed mRNA in the presence of chemical substance/The level of expressed mRNA in the absence of chemical substance (yeast gene YMR219W): 1.5
The level of expressed mRNA in the presence of chemical substance/The level of expressed mRNA in the absence of chemical substance (yeast gene YMR226C): 1.4
The level of expressed mRNA in the presence of chemical substance/ in its absence, gene YMR267W (yeast gene YMR267W, energy system protein genes, 2 h culture with the chemical, ratio to control without chemical): 1.0
The level of expressed mRNA in the presence of chemical substance/ (ratio to absence), gene YMR267W (yeast gene YMR267W, mitochondria-located protein genes, 2 h culture with chemical): 1.0
The level of expressed mRNA in the presence of chemical substance/ in its absence, gene YMR267W (yeast gene YMR267W, ratio of DNA chip fluorescence intensity to that without chemical substance): 1.0
The level of expressed mRNA in the presence of chemical substance/The level of expressed mRNA in the absence of chemical substance (yeast gene YMR275C): 1.1
The level of expressed mRNA in the presence of chemical substance/The level of expressed mRNA in the absence of chemical substance (yeast gene YMR276W): 1.9
The level of expressed mRNA in the presence of chemical substance/ (in its absence), gene YMR278W (yeast gene YMR278W, ratio of DNA chip fluorescence intensity to that without chemical substance): 1.1
